In PubChem BioAssay (NCI):
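Test compounds were applied to cells in 96-well plates for 48 hours at 5 doses. At the GI50, growth is halved. TGI: concentration producing complete growth inhibition.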

How the values were obtained:
Experiment in all cases: DTP human tumour cell line panel, 48 h
DMS 273 small cell lung = system: DMS 273 small cell lung
KM20L2 colon = system: KM20L2 colon
SNB-78 CNS = system: SNB-78 CNS
LXFL 529 NSCLC = system: LXFL 529 NSCLC
M19-MEL melanoma = system: M19-MEL melanoma
HOP-18 NSCLC = system: HOP-18 NSCLC
XF 498 CNS = system: XF 498 CNS
RXF-631 renal = system: RXF-631 renal
MDA-N = system: MDA-N

Compound: Cc1nc(C(=O)O)c2ccccc2n1
- TGI (DMS 273 small cell lung): > 100 µM
- TGI (KM20L2 colon): > 100 µM
- TGI (SNB-78 CNS): > 100 µM
- TGI (LXFL 529 NSCLC): > 100 µM

Compound: CC(C)=CC(=O)N(C)C1C2CN3CCC(O2)C13 (centres undefined)
- TGI (DMS 273 small cell lung): > 100 µM
- TGI (KM20L2 colon): > 100 µM
- TGI (M19-MEL melanoma): > 100 µM
- TGI (SNB-78 CNS): > 100 µM
- TGI (LXFL 529 NSCLC): > 100 µM
- TGI (HOP-18 NSCLC): > 100 µM
- TGI (XF 498 CNS): > 100 µM

Compound: N#Cc1ccc(C=NC23CC4CC(CC(C4)C2)C3)cc1
- TGI (DMS 273 small cell lung): > 100 µM
- TGI (KM20L2 colon): > 100 µM
- TGI (RXF-631 renal): > 100 µM
- TGI (M19-MEL melanoma): > 100 µM
- TGI (SNB-78 CNS): > 100 µM

Compound: CCCCCCCCCCCCC(Br)C(=O)NCC(N)=O (centres undefined)
- TGI (DMS 273 small cell lung): 25 µM
- TGI (KM20L2 colon): 42.5 µM
- TGI (RXF-631 renal): 18.4 µM
- TGI (M19-MEL melanoma): 32.5 µM
- TGI (SNB-78 CNS): 32.2 µM
- TGI (LXFL 529 NSCLC): 21.5 µM
- TGI (HOP-18 NSCLC): 28.2 µM
- TGI (XF 498 CNS): 3.83 µM

Compound: O=S(=O)(/C=C/C(=C/c1ccccc1)S(=O)(=O)c1ccccc1)c1ccccc1
- TGI (DMS 273 small cell lung): 2.9 µM
- TGI (RXF-631 renal): 2.31 µM
- TGI (LXFL 529 NSCLC): 3.19 µM
- TGI (XF 498 CNS): 3.09 µM

Compound: O=C(O)c1cccc(C(=O)O)c1S(=O)Cc1ccccc1 (centres undefined)
- TGI (MDA-N): > 100 µM

Compound: Cc1ccc(/C(C#N)=C/c2cccc([N+](=O)[O-])c2)cc1
- TGI (MDA-N): > 100 µM

Compound: CC1(C)CC(=O)C2=C(C1)OC(N)=C(c1nc(-c3ccccc3)cs1)C2c1ccc(Br)cc1 (centres undefined)
- GI50 (MDA-N): 74.3 µg/mL
- TGI (MDA-N): > 150 µg/mL

Compound: N#CC(C#N)c1ccc(C(=O)N2CCC[C@H]2CO)cc1
- TGI (DMS 273 small cell lung): > 100 µM
- TGI (KM20L2 colon): > 100 µM
- TGI (RXF-631 renal): > 100 µM
- TGI (M19-MEL melanoma): > 100 µM
- TGI (LXFL 529 NSCLC): > 100 µM
- TGI (HOP-18 NSCLC): > 100 µM

Compound: COCCNC(=O)C1C(=O)C(=O)N(CCOC)C1=O (centres undefined)
- TGI (DMS 273 small cell lung): > 100 µM
- TGI (KM20L2 colon): > 100 µM
- TGI (RXF-631 renal): > 100 µM
- TGI (M19-MEL melanoma): > 100 µM
- TGI (SNB-78 CNS): > 100 µM
- TGI (LXFL 529 NSCLC): > 100 µM
- TGI (HOP-18 NSCLC): > 100 µM

Compound: Cc1cc(C)nc(NS(=O)(=O)c2ccc(Nc3c4ccccc4nc4c(C(=O)Nc5ccc(S(=O)(=O)N=C(N)N)cc5)cccc34)cc2)n1
- TGI (DMS 273 small cell lung): > 100 µM
- TGI (KM20L2 colon): > 100 µM
- TGI (RXF-631 renal): > 100 µM
- TGI (M19-MEL melanoma): > 100 µM
- TGI (SNB-78 CNS): > 100 µM
- TGI (HOP-18 NSCLC): > 100 µM

Compound: NC(=O)NNC(=O)NC12CC3CC(CC(C3)C1)C2
- TGI (DMS 273 small cell lung): > 100 µM
- TGI (KM20L2 colon): > 100 µM
- TGI (M19-MEL melanoma): > 100 µM
- TGI (SNB-78 CNS): > 100 µM
- TGI (LXFL 529 NSCLC): > 100 µM
- TGI (HOP-18 NSCLC): > 100 µM
- TGI (XF 498 CNS): > 100 µM

Compound: Cc1ccc(C)c(N2C(=O)C(=O)C(c3nc4ccccc4s3)/C(=N/NC(=O)NN)C2=O)c1 (centres undefined)
- TGI (DMS 273 small cell lung): > 100 µM
- TGI (KM20L2 colon): > 100 µM
- TGI (RXF-631 renal): > 100 µM
- TGI (M19-MEL melanoma): > 100 µM
- TGI (SNB-78 CNS): > 100 µM
- TGI (LXFL 529 NSCLC): > 100 µM
- TGI (HOP-18 NSCLC): > 100 µM
- TGI (XF 498 CNS): > 100 µM

Compound: Cc1ccc(S(=O)(=O)N/N=C(/CC(=O)c2c(C)n([O-])c3ccccc3[n+]2=O)C(=O)Nc2ccccc2C)cc1
- TGI (DMS 273 small cell lung): > 100 µM
- TGI (KM20L2 colon): > 100 µM
- TGI (M19-MEL melanoma): > 100 µM
- TGI (SNB-78 CNS): > 100 µM
- TGI (LXFL 529 NSCLC): > 100 µM
- TGI (HOP-18 NSCLC): > 100 µM

Compound: CCC1(O)C(=O)OCc2c1cc1n(c2=O)Cc2cc3c(NC(=O)CN)cccc3nc2-1 (centres undefined)
- GI50 (DMS 273 small cell lung): 0.0963 µM
- TGI (DMS 273 small cell lung): 1.83 µM
- GI50 (MDA-N): 4.94 µM
- TGI (MDA-N): > 55.8 µM
- GI50 (KM20L2 colon): 1.77 µM
- GI50 (M19-MEL melanoma): 1.38 µM
- TGI (M19-MEL melanoma): 14.1 µM
- GI50 (SNB-78 CNS): 8.13 µM
- TGI (SNB-78 CNS): > 100 µM
- GI50 (LXFL 529 NSCLC): 5.3 µM
- TGI (LXFL 529 NSCLC): > 75 µM
- GI50 (HOP-18 NSCLC): 1.02 µM
- TGI (HOP-18 NSCLC): > 24.3 µM
- GI50 (XF 498 CNS): 2.24 µM
- TGI (XF 498 CNS): 25.4 µM

Compound: O=C(CC1SC(=Nc2ccccc2Cl)NC1=O)Nc1ccc(Cl)cc1Cl (centres undefined)
- TGI (KM20L2 colon): > 100 µM
- TGI (RXF-631 renal): > 100 µM
- TGI (M19-MEL melanoma): > 100 µM
- TGI (SNB-78 CNS): > 100 µM
- TGI (LXFL 529 NSCLC): > 100 µM
- TGI (HOP-18 NSCLC): > 100 µM
- TGI (XF 498 CNS): > 100 µM

Compound: N#CC(c1ccccn1)c1nc2ccccc2[nH]1 (centres undefined)
- TGI (M19-MEL melanoma): > 100 µM
- TGI (SNB-78 CNS): > 100 µM
- TGI (LXFL 529 NSCLC): > 100 µM
- TGI (XF 498 CNS): > 100 µM

Compound: C[CH2][Sn]([CH2]C)([O]C(=O)c1ccccc1OC)[O][Sn]([CH2]C)([CH2]C)[O]C(=O)c1ccccc1OC
- GI50 (DMS 273 small cell lung): > 100 µM
- TGI (DMS 273 small cell lung): > 100 µM
- GI50 (KM20L2 colon): > 100 µM
- TGI (KM20L2 colon): > 100 µM
- GI50 (M19-MEL melanoma): > 100 µM
- TGI (M19-MEL melanoma): > 100 µM
- GI50 (SNB-78 CNS): 63.4 µM
- TGI (SNB-78 CNS): > 100 µM
- GI50 (LXFL 529 NSCLC): 15.1 µM
- TGI (LXFL 529 NSCLC): 28.5 µM
- GI50 (HOP-18 NSCLC): > 100 µM
- TGI (HOP-18 NSCLC): > 100 µM
- GI50 (XF 498 CNS): > 100 µM
- TGI (XF 498 CNS): > 100 µM

Compound: Cc1ccc(NC(=O)CC2C(=O)Nc3ccccc3S2(=O)=O)c(C)c1 (centres undefined)
- TGI (DMS 273 small cell lung): 25.8 µM
- TGI (KM20L2 colon): 26.9 µM
- TGI (SNB-78 CNS): 56 µM
- TGI (LXFL 529 NSCLC): 41 µM
- TGI (XF 498 CNS): 34.8 µM

Compound: O=C(O)CCC(=O)c1ccc2sc3ccccc3c2c1
- TGI (MDA-N): > 100 µM

Compound: C=CNC(=O)NC(=O)CSc1nnc(-c2ccccc2NC(=O)C(F)(F)F)c(=O)[nH]1
- TGI (DMS 273 small cell lung): > 100 µM
- TGI (M19-MEL melanoma): > 100 µM
- TGI (SNB-78 CNS): > 100 µM
- TGI (LXFL 529 NSCLC): > 100 µM
- TGI (XF 498 CNS): > 100 µM

Compound: NC(=O)c1csc(C2OC(COP(=O)(O)CP(=O)(O)OCC3OC(n4cnc5c(N)ncnc54)C(O)C3O)C(O)C2O)n1 (centres undefined)
- TGI (DMS 273 small cell lung): > 100 µM
- TGI (KM20L2 colon): > 100 µM
- TGI (RXF-631 renal): > 100 µM
- TGI (M19-MEL melanoma): > 100 µM
- TGI (SNB-78 CNS): > 100 µM
- TGI (LXFL 529 NSCLC): > 100 µM
- TGI (HOP-18 NSCLC): > 100 µM
- TGI (XF 498 CNS): > 100 µM

Compound: O=C(O)/C=C/c1nc2ccccc2c(=O)o1
- TGI (DMS 273 small cell lung): > 100 µM
- TGI (KM20L2 colon): > 100 µM
- TGI (M19-MEL melanoma): > 100 µM
- TGI (SNB-78 CNS): > 100 µM
- TGI (LXFL 529 NSCLC): > 100 µM
- TGI (HOP-18 NSCLC): > 100 µM

Compound: c1ccc(CCc2cccnc2)nc1
- TGI (MDA-N): > 100 µM

Compound: COC1C(N)C(OC2C(Oc3cccc4c(O)c5c(=O)oc6ccc(C)c7c(=O)oc(c34)c5c67)OC(C)C(O)C2(C)O)OC(C)C1O (centres undefined)
- TGI (DMS 273 small cell lung): 0.399 µM
- TGI (MDA-N): 0.541 µM
- TGI (KM20L2 colon): 1.21 µM
- TGI (RXF-631 renal): 1.45 µM
- TGI (M19-MEL melanoma): 0.458 µM
- TGI (SNB-78 CNS): 0.302 µM
- TGI (LXFL 529 NSCLC): 0.148 µM
- TGI (HOP-18 NSCLC): 3.08 µM
- TGI (XF 498 CNS): 0.208 µM

Compound: O=S(=O)(c1cccc(N=C=S)c1)c1cccc(N=C=S)c1
- TGI (DMS 273 small cell lung): 40.6 µM
- TGI (KM20L2 colon): > 100 µM
- TGI (SNB-78 CNS): 63.5 µM
- TGI (LXFL 529 NSCLC): 28.5 µM

Compound: Cc1cc(N=Nc2ccccc2C)ccc1N
- TGI (MDA-N): 39.6 µM

Compound: OCCNC1c2cc(Cl)ccc2-c2c(Cl)cc(Cl)cc21 (centres undefined)
- TGI (MDA-N): > 100 µM

Compound: OC(C#Cc1ccccc1)(c1ccccc1)c1ccccc1
- TGI (MDA-N): 61.7 µM

Compound: C[N+](C)(C)CC1CCCC1=O (centres undefined)
- TGI (DMS 273 small cell lung): 19.9 µM
- TGI (MDA-N): 3.21 µM
- TGI (KM20L2 colon): 7.79 µM
- TGI (RXF-631 renal): 32.1 µM
- TGI (M19-MEL melanoma): 5.52 µM
- TGI (SNB-78 CNS): 9.86 µM
- TGI (LXFL 529 NSCLC): 2.57 µM
- TGI (HOP-18 NSCLC): 3.3 µM
- TGI (XF 498 CNS): 3.87 µM

Compound: O=C(O)Cc1cccnc1
- TGI (MDA-N): > 100 µM

Compound: COCOCC/C=C/C=O
- TGI (KM20L2 colon): > 100 µM
- TGI (SNB-78 CNS): > 100 µM
- TGI (LXFL 529 NSCLC): > 100 µM
- TGI (HOP-18 NSCLC): > 100 µM
- TGI (XF 498 CNS): > 100 µM
